Test results as given in patent publication EP1712231A2 (priority 1998, dated 2000).
Marks after values point to notes of the source that are not given here. Blank lines part the entries; values can stand above or below the compound they belong to.

How the values were obtained:
[1] = Table 1: tipranavir drug-drug interaction potential and routes of elimination of antiretrovirals; details: drug-drug interaction with tipranavir
[2] = Study 2: pharmacokinetic drug-drug interaction of tipranavir 600 or 900 mg BID and ritonavir 100-500 mg BID, plasma levels by HPLC; assay type: in vivo, human; details: for CLPO / Cmin / Css / AUC / Cmax / Tmax: median (range); for half-life / AUC / Cmax / Tmax: both sexes, human, plasma, oral; for half-life: harmonic mean (range), read-out: t½ (converted)
Protocol: Both groups received their assigned dose of tipranavir continuously throughout the study period. […] The pharmacokinetics of tipranavir when coadministered with ritonavir were evaluated and compared with baseline data, while the ritonavir data were compared to historical data. The study was conducted in 19 healthy volunteers (16 males and 3 females) with a mean age of 30 years (range, 19-52 years), height of 177.1 cm (range, 162.6-190.5 cm), and weight of 76.7 kg (range, 57.3-95.0 kg). Eighteen subjects were Caucasian […]. […] Pharmacokinetic analyses were based on those subjects completing the baseline evaluation and at least one period of concomitant drug administration. […] Detection was by UV absorbance at 260 nm. […] Ritonavir and the internal standard (IS) were extracted from human plasma by liquid-liquid extraction with an ethyl acetate mixture.

[3] = Example 4: pharmacokinetic drug-drug interaction of tipranavir SEDDS 1250 mg BID and ritonavir oral solution 200 mg BID; assay type: in vivo, human
[4] = Study 1: pharmacokinetic drug-drug interaction of tipranavir 1350 mg BID and ritonavir 500 mg BID, plasma levels by HPLC; assay type: in vivo, human; details: for CLPO / Cmin / Css: median (range)
From the text: Twelve subjects were Caucasian and two were of African descent. Ten subjects completed all aspects of the study. Pharmacokinetic analyses were based on the results obtained in these subjects. […] Detection was by UV absorbance at 260 nm. […] Ritonavir and the internal standard (IS) were extracted from human plasma by liquid-liquid extraction with an ethyl acetate mixture.

[5] = Ritonavir 500 mg BID + Tipranavir 600 mg BID, N=7
[6] = Ritonavir 500 mg BID + Tipranavir 900 mg BID, N=6
[7] = ritonavir 500 mg BID + tipranavir 600 or 900 mg BID vs ritonavir alone
[8] = Ritonavir Oral Solution 200mg BID + Tipranavir SEDDS SEC 1250mg BID, median (range), N=21
[9] = ritonavir 200 mg BID + tipranavir 1250 mg BID vs 500-mg twice-daily ritonavir alone
[10] = Ritonavir 500 mg BID + Tipranavir 1350 mg BID, n=10
[11] = Ritonavir 500 mg BID alone, steady state, n=10
[12] = ritonavir 500 mg BID + tipranavir 1350 mg BID vs ritonavir alone

SMILES: Nc1ccn([C@H]2CC[C@@H](CO)O2)c(=O)n1 [ddC]
Potential for Clinically Significant Interaction [1]: Low

SMILES: Nc1nc(NC2CC2)c2ncn([C@H]3C=C[C@@H](CO)C3)c2n1 [Abacavir]
Potential for Clinically Significant Interaction [1]: Low

SMILES: O=C1Nc2ccc(Cl)cc2[C@@](C#CC2CC2)(C(F)(F)F)O1 [Efavirenz]
Potential for Clinically Significant Interaction [1]: Uncertain (Efavirenz is a possible CYP3A inducer)

SMILES: O=c1[nH]cnc2c1ncn2[C@H]1CC[C@@H](CO)O1 [ddI]
Potential for Clinically Significant Interaction [1]: Low

SMILES: C[C@H](Sc1nc(N)cc(Cl)n1)c1cc2ccoc2cn1 [PNU-142721]
Potential for Clinically Significant Interaction [1]: Uncertain

SMILES: Cc1cn([C@H]2C[C@H](N=[N+]=[N-])[C@@H](CO)O2)c(=O)[nH]c1=O [AZT, zidovudine]
Potential for Clinically Significant Interaction [1]: Low

SMILES: Cc1ccnc2c1NC(=O)c1cccnc1N2C1CC1 [Nevirapine]
Potential for Clinically Significant Interaction [1]: Uncertain

Further lines, with some results ahead:

Potential for Clinically Significant Interaction [1]: High (and unfavorable)
SMILES: Cc1c(O)cccc1C(=O)N[C@@H](CSc1ccccc1)[C@H](O)CN1C[C@H]2CCCC[C@H]2C[C@H]1C(=O)NC(C)(C)C [Nelfinavir]

Potential for Clinically Significant Interaction [1]: High (and unfavorable)
SMILES: CC(C)(C)NC(=O)[C@@H]1CN(Cc2cccnc2)CCN1C[C@@H](O)C[C@@H](Cc1ccccc1)C(=O)N[C@H]1c2ccccc2C[C@H]1O [Indinavir]

Potential for Clinically Significant Interaction [1]: High (and unfavorable)
SMILES: CC(C)CN(C[C@@H](O)[C@H](Cc1ccccc1)NC(=O)O[C@H]1CCOC1)S(=O)(=O)c1ccc(N)cc1 [Amprenavir]

CLPO [2, 5]: 19 (11-31) L/h | Cmin [2, 5]: 0.15 (0.08-0.53) µg/mL | Css [2, 5]: 2.3 (1.4-3.7) µg/mL | CLPO [2, 6]: 19 (12-27) L/h | Cmin [2, 6]: 0.15 (0.09-0.62) µg/mL | Css [2, 6]: 1.9 (1.6-3.4) µg/mL | half-life [2, 5]: 1.8 h | AUC [2, 5]: 27000 ng·h/mL | Cmax [2, 5]: 7000 ng/mL | Tmax [2, 5]: 3 h | half-life [2, 6]: 1.8 h | AUC [2, 6]: 26000 ng·h/mL | Cmax [2, 6]: 5800 ng/mL | Tmax [2, 6]: 3 h | decrease in steady-state plasma ritonavir concentrations [2, 7]: ~4 fold | median ritonavir Cmax values, fold lower [2, 7]: more than 2 fold | median ritonavir Cmin values, fold lower [2, 7]: more than 10 fold | CLPO [3, 8]: 25.1 (8.4-73.1)* L/h | Cmin [3, 8]: 0.035 (0.000-0.341)* µg/mL | Css [3, 8]: 0.67 (0.23-1.99)* µg/mL | apparent elimination half-life of ritonavir relative to ritonavir given alone ([3]; ritonavir 200 mg BID + tipranavir 1250 mg BID): decreased | median ritonavir AUC, fold lower [3, 9]: 12 fold | median ritonavir Cmax, fold lower [3, 9]: 10 fold | median ritonavir Cmin, fold lower [3, 9]: 54 fold | CLPO [4, 10]: 26 (17-61) L/h | Cmin [4, 10]: 0.10 (0.04-0.29) µg/mL | Css [4, 10]: 1.6 (0.69-2.50) µg/mL | t½ ([4]; Ritonavir 500 mg BID alone, harmonic mean (range), n=10): 2.9 (2.6-4.4) h | CLPO [4, 11]: 5.1 (3.9-7.8) L/h | Cmin [4, 11]: 1.9 (1.0-3.9) µg/mL | Css [4, 11]: 8.4 (5.3-10.7) µg/mL | half-life ([4]; both sexes, human, plasma, oral, 500 mg, read-out: t½ (converted)): 2.9 h | decrease in mean steady-state ritonavir concentrations [4, 12]: ~5 fold | decrease of median ritonavir Cmax value [4, 12]: 3.8 fold | median ritonavir Cmin concentration, fold lower [4, 12]: more than 10 fold
SMILES: CC(C)c1nc(CN(C)C(=O)N[C@H](C(=O)N[C@@H](Cc2ccccc2)C[C@H](O)[C@H](Cc2ccccc2)NC(=O)OCc2cncs2)C(C)C)cs1 [Ritonavir, (2S,3S,5S)-5(N-(N-((N-Methyl-N-((2-isopropyl-4-thiazoly)methyl)amino)carbonyl)-L-valinyl)amino)-2-(N-((5-thiazoly)methoxycarbonyl)amino)-1,6-diphenyl-3-hydroxhexane, reference compound]
Potential for Clinically Significant Interaction [1]: High (possibly favorable) (Ritonavir increases trough tipranavir concentrations; tipranavir expected to reduce ritonavir concentrations
